Measured values reported in article PMC6927504, “Screening of House Dust from Chinese Homes for Chemicals with Liver X Receptors Binding Activities and Characterization of Atherosclerotic Activity Using an in Vitro Macrophage Cell Line and ApoE^−/− Mice” (Environmental Health Perspectives, 2019).

Experiments:
[1] = system: mouse peritoneal macrophages; test: NBD-cholesterol efflux in peritoneal macrophages isolated from exposed C57BL/6 mice; assay type: in vivo; settings: 200 mg/kg BW for 7 d
Description: RAW264.7 cells or mouse peritoneal macrophages were plated in 96-well plates at 10^4 cells/well and cultured with DMEM-F12 containing 10% FBS and 1μg/mL 22-[N-(7-nitrobenz-2-oxa-1,3-diazol-4-yl)amino]-23,24-bisnor-5-cholen-3β-Ol (NBD-cholesterol) for 24 h. Subsequently, the medium was completely removed and fresh DMEM-F12 containing 10% FBS and 0.1% DMSO (control; n=3 ) or TPHP at the concentration of 1–20,000 nM ( n=3 per group) was added. After a further 24-h incubation, the cells were washed with phosphate-buffered saline (PBS) and then incubated with serum-free medium containing ApoA-I ( 20μg/mL ) or high-density lipoprotein (HDL; 50μg/mL ) for 4 h. Then the medium was collected, and the cells were lysed with a cell lysis buffer. NBD-cholesterol in the medium and cell lysis buffer were measured, respectively, using a Tecan Infinite® M1000Pro Microplate Reader (Tecan Group Ltd.) at 485-nm excitation wavelength and 535-nm emission wavelength. Cholesterol efflux was expressed as a percentage of fluorescence in the medium relative to the total amount of fluorescence.
All experiments related to animals were approved by the institutional animal care and use committee of Peking University and followed the guidelines for animal experiments of the university as well as for experimental animals in China. […] Body weight (BW) was measured every week during the dosing period. […]

[2] = system: RAW264.7 macrophages; test: CellTiter-Glo Luminescent Cell Viability Assay; assay type: cell-based; settings: 24-h exposure at 1–20,000 nM
Description: RAW264.7 cells were obtained from the National Infrastructure of Cell Line Resource of Beijing, China, and the cells used for the experiment were cultured for at least three passages. Dulbecco’s Modified Eagle’s Medium (DMEM)-F12 medium containing 10% fetal bovine serum (FBS) was employed to culture the RAW264.7 cells. RAW264.7 cells were incubated at 37°C with 5% carbon dioxide. The RAW264.7 cells were plated at 2.5×10^5 cells/well (6-well plates), 6.0×10^4 cells/well (24-well plates), and 10^4 cells/well (96-well plates). The RAW264.7 cells were plated and grown overnight; then the medium was removed and fresh DMEM-F12 contained with 0.1% DMSO (control; n=3 ) or TPHP at the concentrations of 1–20,000 nM ( n=3 per group) was added. […] Then the cells were used for the quantitative reverse transcription (qRT)-PCR, cellular cholesterol efflux assay, and foam cell formation experiment.
Cell viability was assessed using the CellTiter-Glo® Luminescent Cell Viability Assay based on the manufacturer’s instructions ( n=3 per group). Luminescence was assessed using an LB 941 TriStar multimode microplate reader (Berthold Technologies).

[3] = target: T1, human LXRα (Homo sapiens, UniProt Q13133); test: cell-based
T1 construct: expressed in transfected cells; host or cells: Saccharomyces cerevisiae Y187
T1 sequence (Q13133 205-447): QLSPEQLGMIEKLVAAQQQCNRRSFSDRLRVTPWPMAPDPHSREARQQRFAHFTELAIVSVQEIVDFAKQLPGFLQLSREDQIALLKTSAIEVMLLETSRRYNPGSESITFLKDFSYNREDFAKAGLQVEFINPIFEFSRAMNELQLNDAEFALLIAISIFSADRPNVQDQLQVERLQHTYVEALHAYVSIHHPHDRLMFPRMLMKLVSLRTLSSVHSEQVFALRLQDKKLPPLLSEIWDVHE

[4] = target: T2, human LXRβ (Homo sapiens, UniProt P55055); test: Yeast two-hybrid assay (LXRβ LBD with coactivator TIF2, β-galactosidase readout)
T2 sequence (P55055 219-460): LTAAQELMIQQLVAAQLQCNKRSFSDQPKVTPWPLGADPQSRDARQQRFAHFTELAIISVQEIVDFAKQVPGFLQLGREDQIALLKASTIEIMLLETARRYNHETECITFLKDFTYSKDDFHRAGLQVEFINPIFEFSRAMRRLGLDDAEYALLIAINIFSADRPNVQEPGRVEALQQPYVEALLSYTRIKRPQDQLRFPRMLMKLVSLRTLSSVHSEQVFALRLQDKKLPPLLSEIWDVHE

[5] = dust standard reference material SRM2585
[6] = range over indoor dust samples (Table S4)

## O=P(Oc1ccccc1)(Oc1ccccc1)Oc1ccccc1 [TPHP, triphenyl phosphate]
[1]
  ApoA-I-mediated cholesterol efflux in peritoneal macrophages: Significant inhibition
  HDL-mediated cholesterol efflux in peritoneal macrophages: Significant inhibition
[2]
  Cell viability: no significant loss of cell viability
[3]
  IC50: 1480 nM
[3]; [5]
  Contribution to the LXRα-antagonist activity of SRM2585: 33.83%
[3]; [6]
  Share of the LXRα-antagonist activity of indoor dust explained by the chemical: 0.19–51.07%
[4]; [5]
  Contribution to the LXRβ-antagonist activity of SRM2585: 12.68%
[4]; [6]
  Share of the LXRβ-antagonist activity of indoor dust explained by the chemical: 0.37–32.60%
